Data as given in article PMC7865305, “Pseudopeptide Amyloid Aggregation Inhibitors: In Silico, Single Molecule and Cell Viability Studies” (International Journal of Molecular Sciences, 2021).
Square brackets hold non-standard residues; d marks the D form. Peptide text beside a SMILES is read from it. * marks the point of attachment. NMeF = CN[C@@H](Cc1ccccc1)C(=O)O; Myristoyl = CCCCCCCCCCCCCC(=O)*; NMeL = CN[C@@H](CC(C)C)C(=O)O; Orn = NCCC[C@H](N)C(=O)O; Dab = NCC[C@H](N)C(=O)O; βAla = NCCC(=O)O

How the values were obtained:
[1] = system: HT22 cells; experiment: SG inhibitor toxicity, MTT assay; type: cell-based, mouse; conditions: 24 h; for HT22 cell viability, inhibitor alone: HT22 cells, 2.5, 5.0 and 10.0 µM, MTT, n = 4, vs control, one-way ANOVA with Dunnett
Protocol: (§1) The MTT assay was used to evaluate the viability of HT22 cells exposed to inhibitor or mixtures of inhibitor with full length Aβ(1–42). HT22 cells were plated into 96-well cell culture plates at a cell density of 100,000 cells/mL in full growth media (DMEM/F12, with 10% FBS, 1% Pen/Strep) at 37°C, 5% CO2, until 80% confluence (20–22 h). Full growth media was exchanged for treatment media (containing Aβ or Aβ with SG inhibitor). After treatment, cells are then returned to incubator for 24 h. The media was then exchanged for phenol red-free DMEM/F12 containing 0.5 mg/mL MTT. Cells were returned to the incubator to metabolize the MTT for 3.5 h, after which, cells were solubilized in isopropanol, with 10% Triton X-100 and 0.1 M HCl. After solubilization, absorbance from the 96-well plates was read in Molecular Dynamics™ plate reader at 570 nm and 690 nm. The signal at 690 nm and media control was subtracted from the 570 nm reading prior to analysis. HT22 cells were a generous gift from Dr. Robert Cumming, PhD, University of Western Ontario.
Inhibitor toxicity to HT22 cells was assessed by treating cells with inhibitor (SGA1, Myr-SGA1, SGA3, Myr-SGA3 or SGC1) at concentrations of 2.5, 5.0 and 10.0 µM for 24 h in triplicates, for n = 4 repeats. One-way ANOVA with Dunnett’s multiple comparisons test was performed to establish significance between inhibitor groups and vehicle-treated control, threshold for significance: α = 0.05. To assess SG inhibitor neuroprotection against Aβ(1–42) oligomers, Aβ(1–42) alone or Aβ(1–42) mixed with each inhibitor at the ratios described above were applied to cells in quadruplicates for n = 3 repeats. One-way ANOVA with Dunnett’s multiple comparisons was performed to establish significance between Aβ-SG inhibitor mixture and Aβ-treated control; threshold for significance: α = 0.05.

[2] = system: HT22 cells; type: cell-based, mouse; conditions: MTT; for HT22 cell viability with Aβ(1–42) and myristoylated inhibitor: 5 µM Aβ(1–42) with Myr-SG inhibitor, 24 h, Figure 7B, n = 3
Protocol: as §1
Aβ(1–42) oligomers were prepared following protocols adapted from Stine et al.. Briefly, Aβ(1–42) was dissolved in HFIP to 1 mg/mL solution and aliquoted into microcentrifuge tubes, and allowed to evaporate under desiccant for 24 h, leaving behind a thin film of Aβ(1–42) monomers, which was stored at […] under desiccant. Immediately prior to use, Aβ(1–42) monomers were suspended in dimethyl sulfoxide (DMSO) at a concentration of 5 mM, vortexed for 30 s, pulse centrifuged for 30 s and then sonicated for 10 min at room temperature. The 5 mM Aβ(1–42) monomer solution prepared in DMSO was then diluted to 100 µM in cold DMEM/F12 media, then further diluted to 5 µM in fresh DMEM/F12 or DMEM/F12 containing SG inhibitor at various concentrations corresponding to a final ratio of 5:1, 2:1, 1:1 and 1:2 Aβ to SG. […]
Inhibitor toxicity to HT22 cells was assessed by treating cells with inhibitor (SGA1, Myr-SGA1, SGA3, Myr-SGA3 or SGC1) at concentrations of 2.5, 5.0 and 10.0 µM for 24 h in triplicates, for n = 4 repeats. […]

[3] = system: Aβ(1–42)-Aβ(1–42) dimerization; parameters: method as in 2 sources, ref [21] = [21]; PMID 24321883; doi:10.1016/j.bios.2013.10.060; 21. Hane F.T. Lee B.Y. Petoyan A. Rauk A. Leonenko Z. Testing synthetic amyloid-β aggregation inhibitor using single molecule atomic force spectroscopy Biosens. Bioelectron. 2014 54 492 498 10.1016/j. ||| ref [30] = [30]; PMID 28844735; doi:10.1016/j.bbapap.2017.07.022; 30. Robinson M. Mehrazma B. Opare S.K.A. Petoyan A. Lou J. Hane F.T. Rauk A. Leonenko Z. Pseudo-peptide Amyloid-β Blocking Inhibitors: Molecular Dynamics and Single Molecule Force Spectroscopy Study B; conditions: cited from earlier work; for Shift of Aβ binding probability across unbinding force distribution / Binding probability of Aβ: SMFS, ref [30]; for Binding probability of Aβ: no significant difference between inhibitors
[4] = system: Aβ(1–40); conditions: ThT fluorescence, 25 μM Aβ(1–40), 37 °C, 5 to 7 days; ref [33]; cited from earlier work
Protocol: Experimental validation of the effect of SGA1 on amyloid aggregation and structure was performed previously by several methods: including ThT fluorescence, circular dichroism (CD), Western blot and AFM imaging. The influence of SGA1 on Aβ(1–40) and Aβ(1–42) aggregation by ThT fluorescence assay was performed at a concentration of 25 μM Aβ(1–40) and Aβ(1–42) at 37 °C for 5 to 7 days, across a broad range of SG inhibitor concentration to determine the IC50 inhibitory ligand:Aβ ratio [33]. For SGA1, the IC50 ligand:Aβ(1–40) ratio occurred at 0.2, while the control, N-methylated KLVFF peptide (A ...

[5] = system: Aβ(1–42); conditions: ThT fluorescence, 25 μM Aβ(1–42), 37 °C, 5 to 7 days; ref [33]; cited from earlier work
Protocol: Experimental validation of the effect of SGA1 on amyloid aggregation and structure was performed previously by several methods: including ThT fluorescence, circular dichroism (CD), Western blot and AFM imaging. The influence of SGA1 on Aβ(1–40) and Aβ(1–42) aggregation by ThT fluorescence assay was performed at a concentration of 25 μM Aβ(1–40) and Aβ(1–42) at 37 °C for 5 to 7 days, across a broad range of SG inhibitor concentration to determine the IC50 inhibitory ligand:Aβ ratio [33].

[6] = system: Aβ(1–42); conditions: AFM, 110 μM Aβ(1–42), 1:1 ratio, 1, 6 and 24 h on mica, vs Aβ-only control; ref [21]; cited from earlier work
Protocol: In Hane et al., solutions of Aβ(1–42) (prepared by the Fezoui method) with and without SGA1 were deposited onto freshly cleaved mica at 1:1 ratio with a final concetration of 110 μM Aβ(1–42), and then incubated for 1, 6 and 24 h, before being washed, dried and than imaged by AFM (Figure 4, adapted with permission).

| Compound | IC50 [1] | HT22 cell viability, inhibitor alone [1] | HT22 cell viability with Aβ(1–42) and myristoylated inhibitor [2] | Shift of Aβ binding probability across unbinding force distribution [3] | Binding probability of Aβ [3] | IC50 ligand:Aβ(1–40) ratio [4] | IC50 inhibitory ligand/Aβ1–42 ratio [5] | Number of Aβ binding events ([3]; SMFS proof-of-concept study, ref [21]) | Fibril length of Aβ(1–42) aggregates [6] | Effect on Aβ(1–42) toxicity ([2]; 5 µM Aβ(1–42), Aβ/SG 5:1, 2:1, 1:1, 1:2, 24 h, n = 3, vs Aβ-treated group) |
| --- | --- | --- | --- | --- | --- | --- | --- | --- | --- | --- |
| CCCCCCCCCCCCCC(=O)N[C@@H](CCN)C(=O)N[C@@H](CCCN)C(=O)N(C)[C@@H](CC(C)C)C(=O)N[C@@H](Cc1ccccc1)C(=O)N(C)[C@@H](Cc1ccccc1)C(=O)N[C@@H](CC(C)C)C(=O)N1CCC[C@H]1C(=O)NCCC(=O)O [Myr-SGA1] (Myristoyl-[Dab][Orn][NMeL]F[NMeF]LP[βAla]-OH; N-terminus and C-terminus assumed) | ~7.5 µM | significant reductions in HT22 cell viability at 5 and 10 µM | below 30% | decreased the binding probability at higher force | reduced the binding probability of Aβ | – | – | – | – | – |
| CC(=O)N[C@@H](CCN)C(=O)N[C@@H](CCCN)C(=O)N(C)[C@@H](CC(C)C)C(=O)N[C@@H](Cc1ccccc1)C(=O)N(C)[C@@H](Cc1ccccc1)C(=O)N[C@@H](CC(C)C)C(=O)N1CCC[C@H]1C(=O)NCCC(=O)O [SGA1] (Ac-[Dab][Orn][NMeL]F[NMeF]LP[βAla]-OH; N-terminus and C-terminus assumed) | – | no significant reduction in cell viability was observed | – | – | – | 0.2 | 0.5 | decreases the number Aβ binding events in a concentration dependent manner | greatly reduced | – |
| Glu-Ala-(Me)Phe-Phe-(Me)Phe-Leu-Orn-Daba [SGC1] | – | – | – | increased the binding probability at higher force | reduced the binding probability of Aβ | – | – | – | – | no statistically significant effect |
| CC(=O)N[C@@H](CCN)C(=O)N[C@@H](CCCN)C(=O)N(C)[C@@H](CC(C)C)C(=O)N[C@@H](Cc1ccccc1)C(=O)N(C)[C@@H](Cc1ccccc1)C(=O)N[C@@H](CC(C)C)C(=O)N[C@@H](C)C(=O)N[C@@H](CCC(=O)O)C(N)=O [SGA3] (Ac-[Dab][Orn][NMeL]F[NMeF]LAE-NH2; N-terminus and C-terminus assumed) | – | no significant reduction in cell viability was observed | – | more uniformly reduced binding probability across the unbinding force distribution | reduced the binding probability of Aβ | – | – | – | – | – |
| CCCCCCCCCCCCCC(=O)N[C@@H](CCN)C(=O)N[C@@H](CCCN)C(=O)N(C)[C@@H](CC(C)C)C(=O)N[C@@H](Cc1ccccc1)C(=O)N(C)[C@@H](Cc1ccccc1)C(=O)N[C@@H](CC(C)C)C(=O)N[C@@H](C)C(=O)N[C@@H](CCC(=O)O)C(N)=O [Myr-SGA3] (Myristoyl-[Dab][Orn][NMeL]F[NMeF]LAE-NH2; C-terminus assumed) | ~7.5 µM | significant reductions in HT22 cell viability at 5 and 10 µM | below 30% | – | – | – | – | – | – | – |
